# Measurements published in PMC7016952, “Characterization of the Menin-MLL Interaction as Therapeutic Cancer Target” (Cancers, 2020).
# Residues, ends and D or L forms follow the SMILES beside them. *: point of attachment. Cbz = O=C(OCc1ccccc1)*
# Experiments:
# menin-MLL interaction = biological target: T1, menin-MLL interaction (Homo sapiens, UniProt O00255); experiment: TR-FRET menin-MLL binding assay; settings: read-out: Potency IC50 Menin-MLL binding
# T1 construct: recombinant full length, His-tagged menin
# T1 sequence (O00255 1-610): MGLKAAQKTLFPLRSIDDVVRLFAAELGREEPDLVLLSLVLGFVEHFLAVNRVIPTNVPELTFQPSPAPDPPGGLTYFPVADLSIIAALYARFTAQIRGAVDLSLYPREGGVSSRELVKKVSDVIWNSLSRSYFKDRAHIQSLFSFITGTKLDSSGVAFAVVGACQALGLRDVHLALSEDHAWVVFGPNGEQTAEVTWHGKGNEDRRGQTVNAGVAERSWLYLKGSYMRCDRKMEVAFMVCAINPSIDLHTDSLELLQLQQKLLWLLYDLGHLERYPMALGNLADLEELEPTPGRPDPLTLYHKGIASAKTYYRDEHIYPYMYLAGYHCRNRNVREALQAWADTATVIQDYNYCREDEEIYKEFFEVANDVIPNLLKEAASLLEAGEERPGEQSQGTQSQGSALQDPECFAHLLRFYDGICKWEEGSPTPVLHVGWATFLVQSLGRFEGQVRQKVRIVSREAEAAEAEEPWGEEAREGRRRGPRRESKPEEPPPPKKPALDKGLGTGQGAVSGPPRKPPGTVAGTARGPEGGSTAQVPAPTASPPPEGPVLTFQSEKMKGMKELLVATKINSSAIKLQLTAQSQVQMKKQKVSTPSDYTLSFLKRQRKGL
# menin = biological target: T2, menin (Homo sapiens, UniProt O00255); experiment: Isothermal Titration Calorimetry (ITC) on purified menin; format: binding; settings: ITC, 25 °C, menin 1-615; read-out: KD
# T2 construct: purified menin (1–615 with GST-tag cleaved as described above); GST (TEV cleavable) (N, cleaved yes); made in house; host or cells: E. coli BL21 (DE3)
# T2 sequence (O00255 1-615 isoform O00255-1): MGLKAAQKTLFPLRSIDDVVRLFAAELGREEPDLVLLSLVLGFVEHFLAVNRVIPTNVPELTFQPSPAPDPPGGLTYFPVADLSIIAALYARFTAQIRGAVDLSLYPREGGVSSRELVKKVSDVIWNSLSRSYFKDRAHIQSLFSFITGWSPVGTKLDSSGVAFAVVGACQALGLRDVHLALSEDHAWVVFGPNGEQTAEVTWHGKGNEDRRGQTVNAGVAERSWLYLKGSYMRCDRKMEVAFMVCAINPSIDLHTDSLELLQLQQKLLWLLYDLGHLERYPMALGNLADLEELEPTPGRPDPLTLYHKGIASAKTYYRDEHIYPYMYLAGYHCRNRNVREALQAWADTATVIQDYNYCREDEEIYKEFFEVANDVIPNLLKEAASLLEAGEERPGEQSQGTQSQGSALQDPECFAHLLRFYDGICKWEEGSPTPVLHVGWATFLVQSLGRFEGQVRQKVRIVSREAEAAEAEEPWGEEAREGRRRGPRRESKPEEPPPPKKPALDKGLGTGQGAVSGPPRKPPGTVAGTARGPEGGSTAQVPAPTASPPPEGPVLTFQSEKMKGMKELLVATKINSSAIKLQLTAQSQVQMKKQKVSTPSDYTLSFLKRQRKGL
# Method: Cloning of expression vectors for recombinant menin was performed as follows. […] Proteins were expressed in E. coli BL21 (DE3) following 0.1 mM IPTG induction at 17 °C overnight. For purification, cell pellets were resuspended in buffer A (50 mM Tris pH 7.5, 300 mM NaCl, 2 mM DTT). Cells were lysed using a high pressure Microfluidics apparatus and the cell debris pelleted by centrifugation. The supernatant was applied to a GST column (GE Healthcare, Chicago, IL, USA), washed with two column volumes of washing buffer A and eluted with Buffer B (Buffer A plus 15 mM reduced glutathione). If necessary, the purification tag was cleaved off with the addition of His-TEV protease (1:20 mass ratio) during overnight incubation in buffer A. His-TEV was removed by IMAC column rebinding and final protein purification of either GST-cleaved or uncleaved menin-1 was performed by size exclusion chromatography using a HiLoad 16/60 Superdex 200 (GE Healthcare) column in buffer C (Buffer A but 50 mM NACl).
# The compound was dissolved in 100% DMSO to a concentration of 10 mM and subsequently diluted to a final concentration of 5 µM in ITC Buffer. Isothermal Titration Calorimetry (ITC) was performed at 25 °C in a Microcal PEAQ-ITC (Malvern Panalytical). […] Reference Power was set to 6 μcal/s. Data were collected on high feedback mode. Analysis was performed with a single binding site model in the Microcal PEAQ-ITC Analysis Software (Malvern Panalytical).
# MV4;11 cells = experiment: Proliferation inhibition, MV4;11; format: cell-based, human; settings: Homo sapiens, MV4-11; proliferation; read-out: Potency IC50 MV4;11
# MOLM-13 cells = experiment: Proliferation inhibition, MOLM-13; format: cell-based, human; settings: Homo sapiens, proliferation, read-out: Potency IC50 MOLM-13
# HL-60 cells = experiment: Proliferation inhibition, HL-60; format: cell-based; settings: Homo sapiens, read-out: Potency IC50 HL-60
# Jurkat cells = experiment: Proliferation inhibition, Jurkat; format: cell-based; settings: Homo sapiens, read-out: Potency IC50 Jurkat
# [1] = Metabolic stability in rat hepatocytes; format: in vitro ADME; settings: in vitro maximal bioavailability
# Method: Liver cells were distributed at a density of 1.0 × 10^6 cells/mL and treated with 1 µM BAY-155 or MI-503. During incubation, the hepatocyte suspensions were continuously shaken, and aliquots were taken at 2, 8, 16, 30, 45, and 90 min, fixed with cold methanol and stored at −20 °C. Next, samples were centrifuged and the supernatant was analyzed with an LC-MS/MS. The compound half-life was determined from the concentration–time plot. The intrinsic clearances were calculated from the half-life, together with additional parameters (liver blood flow, quantity of liver cells in vivo and in vitro).
# CYP 3A4 = CYP 3A4 (Homo sapiens, UniProt P08684); experiment: CYP inhibition 3A4; format: in vitro ADME
# Chain of CYP 3A4 (P08684 whole entry): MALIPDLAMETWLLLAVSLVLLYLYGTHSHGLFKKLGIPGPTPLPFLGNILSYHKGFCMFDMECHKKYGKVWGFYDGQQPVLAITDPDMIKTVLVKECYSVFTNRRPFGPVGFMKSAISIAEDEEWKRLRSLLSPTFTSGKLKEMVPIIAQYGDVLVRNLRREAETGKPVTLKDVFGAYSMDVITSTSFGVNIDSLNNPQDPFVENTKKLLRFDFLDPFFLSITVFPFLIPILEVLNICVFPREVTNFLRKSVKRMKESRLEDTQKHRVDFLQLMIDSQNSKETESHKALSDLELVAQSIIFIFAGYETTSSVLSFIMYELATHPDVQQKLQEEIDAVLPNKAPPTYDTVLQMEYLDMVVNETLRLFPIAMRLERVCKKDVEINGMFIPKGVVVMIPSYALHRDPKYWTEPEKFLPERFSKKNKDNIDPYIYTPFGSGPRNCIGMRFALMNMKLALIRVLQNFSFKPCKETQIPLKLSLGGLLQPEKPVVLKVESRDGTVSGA
# CYP 2D6 = CYP 2D6 (Homo sapiens, UniProt P10635); experiment: CYP inhibition 2D6; format: in vitro ADME
# Chain of CYP 2D6 (P10635 whole entry): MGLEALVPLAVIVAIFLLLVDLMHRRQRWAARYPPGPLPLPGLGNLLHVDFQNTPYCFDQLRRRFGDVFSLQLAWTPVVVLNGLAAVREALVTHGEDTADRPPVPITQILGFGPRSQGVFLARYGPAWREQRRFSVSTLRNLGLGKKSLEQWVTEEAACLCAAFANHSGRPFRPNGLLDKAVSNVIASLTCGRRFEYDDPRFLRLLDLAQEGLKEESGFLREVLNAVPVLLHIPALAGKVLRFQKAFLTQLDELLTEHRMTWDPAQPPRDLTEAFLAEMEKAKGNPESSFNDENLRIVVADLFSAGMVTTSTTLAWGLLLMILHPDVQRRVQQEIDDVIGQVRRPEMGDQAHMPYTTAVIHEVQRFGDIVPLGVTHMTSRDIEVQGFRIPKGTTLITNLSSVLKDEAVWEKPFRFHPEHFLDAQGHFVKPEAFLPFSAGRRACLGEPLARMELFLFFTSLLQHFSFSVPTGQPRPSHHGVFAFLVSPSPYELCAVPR
# CYP 2C9 = CYP 2C9 (Homo sapiens, UniProt P11712); experiment: CYP inhibition 2C9; format: in vitro ADME
# Chain of CYP 2C9 (P11712 whole entry): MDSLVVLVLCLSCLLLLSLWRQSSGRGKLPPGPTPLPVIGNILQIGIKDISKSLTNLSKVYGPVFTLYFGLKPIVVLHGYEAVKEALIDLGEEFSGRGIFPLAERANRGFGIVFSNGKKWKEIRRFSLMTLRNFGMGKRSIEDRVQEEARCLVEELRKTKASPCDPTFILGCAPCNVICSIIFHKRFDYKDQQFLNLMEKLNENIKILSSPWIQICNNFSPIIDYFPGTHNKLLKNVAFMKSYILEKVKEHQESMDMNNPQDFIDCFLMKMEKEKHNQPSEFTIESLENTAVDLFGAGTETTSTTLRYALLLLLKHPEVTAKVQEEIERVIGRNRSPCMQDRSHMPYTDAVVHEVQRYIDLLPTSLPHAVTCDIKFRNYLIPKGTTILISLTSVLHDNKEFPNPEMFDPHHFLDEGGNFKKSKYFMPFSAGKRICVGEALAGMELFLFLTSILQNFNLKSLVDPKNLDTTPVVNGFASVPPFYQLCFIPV
# CYP 2C8 = CYP 2C8 (Homo sapiens, UniProt P10632); experiment: CYP inhibition 2C8; format: in vitro ADME
# Chain of CYP 2C8 (P10632 whole entry): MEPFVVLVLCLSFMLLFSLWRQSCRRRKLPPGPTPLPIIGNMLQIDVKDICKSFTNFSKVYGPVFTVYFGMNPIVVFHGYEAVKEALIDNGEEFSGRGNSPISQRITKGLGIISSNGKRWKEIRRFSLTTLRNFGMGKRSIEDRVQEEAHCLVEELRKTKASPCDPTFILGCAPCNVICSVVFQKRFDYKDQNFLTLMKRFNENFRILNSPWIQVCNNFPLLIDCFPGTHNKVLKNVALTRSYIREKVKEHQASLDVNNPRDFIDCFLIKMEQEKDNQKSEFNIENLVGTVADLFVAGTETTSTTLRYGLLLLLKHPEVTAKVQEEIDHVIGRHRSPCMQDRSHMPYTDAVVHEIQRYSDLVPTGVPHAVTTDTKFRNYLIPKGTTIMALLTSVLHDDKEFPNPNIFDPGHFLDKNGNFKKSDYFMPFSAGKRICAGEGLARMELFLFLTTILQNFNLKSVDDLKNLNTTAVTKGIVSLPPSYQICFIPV
# CYP 1A2 = CYP 1A2 (Homo sapiens, UniProt P05177); experiment: CYP inhibition 1A2; format: in vitro ADME
# Chain of CYP 1A2 (P05177 whole entry): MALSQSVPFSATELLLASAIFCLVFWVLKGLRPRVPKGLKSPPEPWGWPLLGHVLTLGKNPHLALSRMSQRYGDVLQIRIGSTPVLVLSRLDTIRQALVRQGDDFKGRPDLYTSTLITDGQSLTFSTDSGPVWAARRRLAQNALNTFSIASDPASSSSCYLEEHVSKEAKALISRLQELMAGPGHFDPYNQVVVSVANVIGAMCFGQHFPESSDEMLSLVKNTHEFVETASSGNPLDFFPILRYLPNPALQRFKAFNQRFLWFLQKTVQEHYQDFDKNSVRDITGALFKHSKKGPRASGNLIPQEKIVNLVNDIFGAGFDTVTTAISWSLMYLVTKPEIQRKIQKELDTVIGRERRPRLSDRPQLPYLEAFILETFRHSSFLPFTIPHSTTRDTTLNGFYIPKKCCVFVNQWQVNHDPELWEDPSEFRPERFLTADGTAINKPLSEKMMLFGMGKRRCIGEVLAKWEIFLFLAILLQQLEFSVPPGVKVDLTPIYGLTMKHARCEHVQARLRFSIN
# [2] = tested on: safety pharmacology relevant proteins (GPCRs, ion channels and transporters); experiment: Selectivity panel of safety pharmacology assays; settings: 10 µM
# [3] = tested on: T3, menin protein levels in VCaP cells; experiment: Western blot of menin protein level; format: cell-based, human
# T3 construct: endogenous in cells; host or cells: VCaP
# RKO xenograft = RKO xenograft efficacy; format: in vivo, mice
# Method: (§1) Tumor cells were injected subcutaneously into the flanks of 6- to 9-week old animals. Efficacy studies in xenograft models were performed at Bayer or EPO GmbH (Berlin-Buch, Germany) using NMRI nu/nu, SCID, BALB/c Nude female mice or SCID male mice (VCaP tumors). All animal studies were conducted in accordance with the animal welfare laws and were approved by the State Office for Health and Social Affairs Berlin (LAGeSo). Experiments were run under the animal license B3600a0007. Compound treatment started at a predefined tumor size or burden or at a predefined day after cell inoculation. BAY-155 was administered orally (p.o.) at various doses and regorafenib, tamoxifen and enzalutamide (resuspended in PEG400/H2O 6/4 or PEG400/EtOH 9/1) were used as control treatment for RKO, MCF7 and VCaP xenografts, respectively. Subcutaneous tumor volumes were determined by caliper measurement.
# VCaP xenograft = VCaP xenograft efficacy; format: in vivo, mice
# Method: as §1
# [4] = tested on: AR signaling pathway genes in VCaP tumor samples; experiment: Ex vivo gene expression in VCaP xenografts; design: species or system mice; settings: 52 days of treatment
# Method: (§2) Total RNA was isolated using RNeasy-Plus Mini kit (Qiagen, Hilden, Germany). RNA (1 μg) was reverse transcribed using SuperScript III First-Strand Synthesis SuperMix (Life Technologies) and the generated cDNA was analyzed with commercial primers (Supplementary Materials Table S1) by qRT-PCR using TaqMan Fast Advanced Master Mix (Life Technologies). For the RNA-seq study, ZR-75-1, BT474, PANC-1, MiaPaCa-2, 22RV1, JMSU-1, DLD-1, SW1463, LoVo and G401 cells were treated with 5 µM BAY-155 or DMSO for 48 h prior to RNA extraction. After 48 h of 5 µM BAY-155 or DMSO treatment, MCF7, VCaP and LNCaP cells were stimulated for further 12 h with 0.1 nM of E2 (ß-Estradiol) or 1 nM R1881, respectively. MCF7, VCaP and LNCaP cells were cultured in starvation medium (containing 5 µM BAY-155 or DMSO) 6 h before stimulation. RNA was isolated using RNeasy-Plus Mini kit (Qiagen). The purified RNA was used for library preparation (Illumina, San Diego, CA, USA. TruSeq Stranded mRNA Kit) and the generated libraries were sequenced (Illumina, HiSeq2500 HTv4, SR, dual-indexing, 50 cycles).
# (§3) Tumors were harvested, dissociated and total RNA was extracted using the TissueLyser (Qiagen, Hilden, Germany) together with RNeasy-Plus Mini kit according to the manufacturer protocol.
# MCF7 xenograft = MCF7 xenograft efficacy; format: in vivo, mice
# Method: as §1
# [5] = tested on: ER signaling pathway genes in MCF7 tumor samples; experiment: Ex vivo gene expression in MCF7 xenografts; design: species or system mice; settings: 27 days of treatment
# Method: as §2, §3
compound,measurement,setting,value
Cc1c(CN2CCC(Nc3ncnc4sc(CC(F)(F)F)cc34)CC2)ccc2c1cc(C#N)n2Cc1cn[nH]c1 [MI-503],IC50,menin-MLL interaction,80 nM
same,Kd,menin,94 nM
same,IC50,MV4;11 cells,251 nM
same,IC50,MOLM-13 cells,893 nM
same,IC50,HL-60 cells,672 nM
same,IC50,Jurkat cells,568 nM
same,hepatocytes Fmax Rat,[1],48%
same,in vivo F Rat,In vivo DMPK in rat; rat in vivo bioavailability,2.7%
same,clearance,"In vivo DMPK in rat; whole blood, rat in vivo, read-out: in vivo CL blood Rat (converted)",25 mL/min/kg
same,IC50,CYP 3A4,1000 nM
same,IC50,CYP 2D6,2400 nM
same,IC50,CYP 2C9,800 nM
same,IC50,CYP 2C8,4000 nM
same,IC50,CYP 1A2,> 10000 nM
same,number of tested proteins inhibited by ≥ 50%,[2],28
same,menin protein levels,[3]; Western blot,reduce menin protein levels in a time- and concentration-dependent manner
"CNC(=O)c1cc(Oc2ccc(NC(=O)Nc3ccc(Cl)c(C(F)(F)F)c3)c(F)c2)ccn1 [regorafenib, reference compound]",tumor volume and weight (anti-growth effects),RKO xenograft,pronounced reduction of tumor volume and weight
"CNC(=O)c1ccc(N2C(=S)N(c3ccc(C#N)c(C(F)(F)F)c3)C(=O)C2(C)C)cc1F [enzalutamide, reference compound]",tumor volume and tumor weight,VCaP xenograft,reduced tumor volume and tumor weight
same,FKBP5 and TMPRSS2 expression ex vivo,[4],significant reduction
CC(C)C[C@@H](C=O)NC(=O)[C@H](CC(C)C)NC(=O)[C@H](CC(C)C)NC(=O)OCc1ccccc1 [MG-132] (Cbz-Leu-Leu-Leu-aldehyde),rescue of menin protein level under BAY-155 treatment,"[3]; MG-132 10 µM with BAY-155 10 µM, 16 h",fully rescued the menin protein level
"CC/C(=C(\c1ccccc1)c1ccc(OCCN(C)C)cc1)c1ccccc1 [tamoxifen, reference compound]",tumor volume and tumor weight,MCF7 xenograft,reduced tumor volume and tumor weight
same,"EGR3, GREB1 and PGR1 expression ex vivo",[5],significant reduction
